The IC50 is the concentration needed to halve the response being measured. Lower therefore signals higher potency.

Starred links: 1 amine or outer side, 2 acyl side, 3 side chain; linkers in the order of their positions; H or OH if unused. Positions of bridges follow the written chain, without caps; N, C: chain ends. Non-standard residues stand in square brackets, D forms with d. Residues, ends and D or L forms follow the SMILES beside them. ξ: configuration not given here. Tyrψ(CN4)Ala = C[C@@H](C(=O)[*:2])n1nnnc1[C@H](Cc1ccc(O)cc1)N[*:1]; X1 = CCCC[C@@H](C(=O)[*:2])n1nnnc1[C@H](Cc1c[nH]c2ccccc12)N[*:1]; Morpholine(3S-CO) = O=C(O)[C@@H]1COCCN1; Bta = N[C@@H](Cc1csc2ccccc12)C(=O)O; Hyp = O=C(O)[C@@H]1C[C@@H](O)CN1; NMeNle = CCCC[C@H](NC)C(=O)O; ξH = NC(Cc1c[nH]cn1)C(=O)O; NMeA = CN[C@@H](C)C(=O)O; Orn = NCCC[C@H](N)C(=O)O; Dab = NCC[C@H](N)C(=O)O; Dap = NC[C@H](N)C(=O)O; ξC = NC(CS)C(=O)O

Data on 13 compounds can be found in patent publication US10450347B2, “Immunomodulators” (BRISTOL-MYERS SQUIBB COMPANY, priority 2015, dated 2019).

For one experiment, the target named is T1, PD-1-Ig/PD-L1-His (Homo sapiens, UniProt Q9NZQ7).
T1 construct: [hPD-L1(19-239)-tobacco vein mottling virus protease cleavage site (TVMV)-His]; made in house; host or cells: HEK293T cells
T1 sequence (Q9NZQ7 with tags, fused parts or gaps): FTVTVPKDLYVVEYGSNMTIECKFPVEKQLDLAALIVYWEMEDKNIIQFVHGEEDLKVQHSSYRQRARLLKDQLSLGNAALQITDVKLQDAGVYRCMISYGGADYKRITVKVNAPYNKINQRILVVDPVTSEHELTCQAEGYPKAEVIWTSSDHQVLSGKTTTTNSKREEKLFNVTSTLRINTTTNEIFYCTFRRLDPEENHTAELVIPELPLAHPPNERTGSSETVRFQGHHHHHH
The experiment in a line: PD-1/PD-L1 Homogenous Time-Resolved Fluorescence (HTRF) binding assay. The following applies: inhibition of PD-1-Ig binding to PD-L1-TVMV-His; numeric values. The source says: The ability of the macrocyclic peptides of the present disclosure to bind to PD-L1 was investigated using a PD-1/PD-L1 Homogenous Time-Resolved Fluorescence (HTRF) binding assay.
Homogenous Time-Resolved Fluorescence (HTRF) Assays of Binding of Soluble PD-1 to Soluble PD-L1. Soluble PD-1 and soluble PD-L1 refers to proteins with carboxyl-end truncations that remove the transmembrane-spanning regions and are fused to heterologous sequences, specifically the Fc portion of the human immunoglobuling G sequence (Ig) or the hexahistidine epitope tag (SEQ ID NO: 3) (His). All binding studies were performed in an HTRF assay buffer consisting of dPBS supplemented with 0.1% (w/v) bovine serum albumin and 0.05% (v/v) Tween-20. For the PD-1-Ig/PD-L1-His binding assay, inhibitors were pre-incubated with PD-L1-His (10 nM final) for 15 m in 4 μl of assay buffer, followed by addition of PD-1-Ig (20 nM final) in 1 μl of assay buffer and further incubation for 15 m. PD-L1 fusion proteins from either human, cynomologous macaques, mouse, or other species were used. HTRF detection was achieved using europium crypate-labeled anti-Ig monoclonal antibody (1 nM final) and allophycocyanin (APC) labeled anti-His monoclonal antibody (20 nM final). Antibodies were diluted in HTRF detection buffer and 5 μl was dispensed on top of binding reaction. The reaction was allowed to equilibrate for 30 minutes and signal (665 nm/620 nm ratio) was obtained using an EnVision fluorometer. Additional binding assays were established between PD-1-Ig/PD-L2-His (20 and 5 nM, respectively), CD80-His/PD-L1-Ig (100 and 10 nM, respectively) and CD80-His/CTLA4-Ig (10 and 5 nM, respectively). Binding/competition studies between biotinylated Compound No. 71 and human PD-L1-His were performed as follows. Macrocyclic peptide inhibitors were pre-incubated with PD-L1-His (10 nM final) for 60 minutes in 4 μl of assay buffer followed by addition of biotinylated Compound No. 71 (0.5 nM final) in 1 μl of assay buffer. Binding was allowed to equilibrate for 30 minutes followed by addition of europium crypated labeled Streptavidin (2.5 pM final) and APC-labeled anti-His (20 nM final) in 5 μl of HTRF buffer. The reaction was allowed to equilibrate for 30 m and signal (665 nm/620 nm ratio) was obtained using an EnVision fluorometer.
Recombinant Proteins. Carboxyl-truncated human PD-1 (amino acids 25-167) with a C-terminal human Ig epitope tag [hPD-1 (25-167)-3S-IG] and human PD-L1 (amino acids 18-239) with a C-terminal His epitope tag [hPD-L1(19-239)-tobacco vein mottling virus protease cleavage site (TVMV)-His] were expressed in HEK293T cells and purified sequentially by recombinant Protein A affinity chromatography and size exclusion chromatography. Human PD-L2-His (Sino Biologicals), CD80-His (Sino Biologicals), CTLA4-Ig (RnD Systems) were all obtained through commercial sources.
A general note: In TR-FRET formats the signal depends on donor and acceptor labels being close together.
The compound `CCCC[C@H]1C(=O)N[C@@H](C)C(=O)N[C@H](C(=O)NCC(N)=O)CSCC(=O)N[C@@H](Cc2ccc(O)cc2)C(=O)N2CCOC[C@H]2C(=O)N[C@@H](CC(N)=O)C(=O)N2CCC[C@H]2C(=O)N[C@@H](CN)C(=O)N[C@@H](CC(C)C)C(=O)N2C[C@H](O)C[C@H]2C(=O)N[C@@H](Cc2c[nH]c3ccccc23)C(=O)N[C@@H](CO)C(=O)N[C@@H](Cc2c[nH]c3ccccc23)c2nnnn2[C@@H](CCCC)C(=O)N1C` [Example 1055] ({CH2CO}-Y[Morpholine(3S-CO)]NP[Dap]L[Hyp]WS[X1][NMeNle]ACG-NH2; thioether N-13) came in with an IC50 of 8 nM.

The same experiment, now with this note: inhibition of PD-1-Ig binding to PD-L1-TVMV-His; range classes.
In turn, `CCCC[C@H]1C(=O)N[C@@H](CCCN)C(=O)N[C@H](C(=O)NCC(N)=O)CSCC(=O)N[C@@H](Cc2ccc(O)cc2)C(=O)N(C)[C@@H](C)C(=O)N[C@@H](CC(N)=O)C(=O)N2CCC[C@H]2C(=O)N[C@@H](CN)C(=O)N[C@@H](CC(C)C)C(=O)N2C[C@H](O)C[C@H]2C(=O)N[C@@H](Cc2c[nH]c3ccccc23)C(=O)N[C@@H](CO)C(=O)N[C@@H](Cc2c[nH]c3ccccc23)c2nnnn2[C@@H](CCCC)C(=O)N1C` [Example 1051] ({CH2CO}-Y[NMeA]NP[Dap]L[Hyp]WS[X1][NMeNle][Orn]CG-NH2; thioether N-13) had an IC50 of 100 to 10000 nM.
In turn, `CCCC[C@H]1C(=O)N[C@@H](CCCNC(=N)N)C(=O)N[C@H](C(=O)NCC(N)=O)CSCC(=O)N[C@@H](Cc2ccc(O)cc2)C(=O)N(C)[C@@H](C)C(=O)N[C@@H](CC(N)=O)C(=O)N2CCC[C@H]2C(=O)N[C@@H](Cc2cnc[nH]2)C(=O)N[C@@H](CC(C)C)C(=O)N2C[C@H](O)C[C@H]2C(=O)N[C@@H](Cc2c[nH]c3ccccc23)C(=O)N[C@@H](CO)C(=O)N[C@@H](Cc2cccc3ccccc23)c2nnnn2[C@@H](CCCC)C(=O)N1C` [Example 1052] showed an IC50 of 10 to 99 nM.
In the case of `CCCC[C@H]1C(=O)N[C@@H](CCC(=O)O)C(=O)N[C@H](C(=O)NCC(N)=O)CSCC(=O)N[C@@H](Cc2ccc(O)cc2)C(=O)N2CCOC[C@H]2C(=O)N[C@@H](CC(N)=O)C(=O)N2CCC[C@H]2C(=O)N[C@@H](CN)C(=O)N[C@@H](CC(C)C)C(=O)N2C[C@H](O)C[C@H]2C(=O)N[C@@H](Cc2c[nH]c3ccccc23)C(=O)N[C@@H](CO)C(=O)N[C@@H](Cc2c[nH]c3ccccc23)c2nnnn2[C@@H](CCCC)C(=O)N1C` [Example 1053] ({CH2CO}-Y[Morpholine(3S-CO)]NP[Dap]L[Hyp]WS[X1][NMeNle]ECG-NH2; thioether N-13), the 50% inhibitory concentration (IC50) fell in the range of 10 to 99 nM.
Compound `CCCC[C@H]1C(=O)N[C@@H](CCCN)C(=O)NC(C(=O)NCC(N)=O)CSCC(=O)N[C@@H](Cc2ccc(O)cc2)C(=O)N2CCOC[C@H]2C(=O)N[C@@H](CC(N)=O)C(=O)N2CCC[C@H]2C(=O)N[C@@H](CN)C(=O)N[C@@H](CC(C)C)C(=O)N2C[C@H](O)C[C@H]2C(=O)N[C@@H](Cc2c[nH]c3ccccc23)C(=O)N[C@@H](CO)C(=O)N[C@@H](Cc2c[nH]c3ccccc23)c2nnnn2[C@@H](CCCC)C(=O)N1C` (stereo partly drawn) [Example 1054] ({CH2CO}-Y[Morpholine(3S-CO)]NP[Dap]L[Hyp]WS[X1][NMeNle][Orn][ξC]G-NH2; thioether N-13) yielded an IC50 of 100 to 10000 nM.
On to `CCCC[C@H]1C(=O)N(C)[C@@H](CCCC)C(=O)N[C@@H](CCC(=O)O)C(=O)N[C@H](C(=O)NCC(N)=O)CSCC(=O)N[C@@H](Cc2ccc(O)cc2)c2nnnn2[C@@H](C)C(=O)N[C@@H](CC(=O)O)C(=O)N2CCC[C@H]2C(=O)N[C@@H](CN)C(=O)N[C@@H](CCC(=O)O)C(=O)N2C[C@H](O)C[C@H]2C(=O)N[C@@H](Cc2c[nH]c3ccccc23)C(=O)N[C@@H](CCN)C(=O)N[C@@H](Cc2c[nH]c3ccccc23)C(=O)N1C` [Example 1056] ({CH2CO}-[Tyrψ(CN4)Ala]DP[Dap]E[Hyp]W[Dab]W[NMeNle][NMeNle]ECG-NH2; thioether N-13), for which the half-maximal inhibitory concentration (IC50) is 100 to 10000 nM.
Consider `CCCC[C@H]1C(=O)N(C)[C@@H](CCCC)C(=O)N[C@@H](CC(C)C)C(=O)N[C@H](C(=O)NCC(N)=O)CSCC(=O)N[C@@H](Cc2ccc(O)cc2)c2nnnn2[C@@H](C)C(=O)N[C@@H](CC(N)=O)C(=O)N2CCC[C@H]2C(=O)N[C@@H](Cc2cnc[nH]2)C(=O)N[C@@H](CCC(N)=O)C(=O)N2C[C@H](O)C[C@H]2C(=O)N[C@@H](Cc2c[nH]c3ccccc23)C(=O)N[C@@H](CO)C(=O)N[C@@H](Cc2c[nH]c3ccccc23)C(=O)N1C` [Example 1057] ({CH2CO}-[Tyrψ(CN4)Ala]NPHQ[Hyp]WSW[NMeNle][NMeNle]LCG-NH2; thioether N-13), for which the IC50 lay within 100 to 10000 nM.
Compound `CCCC[C@H]1C(=O)N[C@@H](CN)C(=O)N[C@H](C(=O)NCC(N)=O)CSCC(=O)N[C@@H](Cc2ccc(O)cc2)C(=O)N2CCCC[C@H]2C(=O)N[C@@H](CC(N)=O)C(=O)N2CCC[C@H]2C(=O)N[C@@H](CN)C(=O)N[C@@H](CCC(=O)O)C(=O)N2C[C@H](O)C[C@H]2C(=O)N[C@@H](Cc2c[nH]c3ccccc23)C(=O)N[C@@H](CCN)C(=O)N[C@@H](Cc2cccc3ccccc23)c2nnnn2[C@@H](CCCC)C(=O)N1C` [Example 1059] came in with an IC50 of 10 to 99 nM.
Turning to `CCCC[C@H]1C(=O)N(C)[C@@H](CCCC)C(=O)N[C@@H](CC(C)C)C(=O)N[C@H](C(=O)NCC(=O)O)CSCC(=O)N[C@@H](Cc2ccc(O)cc2)c2nnnn2[C@@H](C)C(=O)N[C@@H](CC(N)=O)C(=O)N2CCC[C@H]2C(=O)NC(Cc2c[nH]cn2)C(=O)N[C@@H](CCC(N)=O)C(=O)N2C[C@H](O)C[C@H]2C(=O)N[C@@H](Cc2c[nH]c3ccccc23)C(=O)N[C@@H](CO)C(=O)N[C@@H](Cc2csc3ccccc23)C(=O)N1C` (stereo partly shown) [Example 1061] ({CH2CO}-[Tyrψ(CN4)Ala]NP[ξH]Q[Hyp]WS[Bta][NMeNle][NMeNle]LCG-OH; thioether N-13), the half-inhibitory concentration (IC50) lay in the range of 100 to 10000 nM.
In the case of `CCCC[C@H]1C(=O)N[C@@H](C)C(=O)N[C@H](C(=O)NCC(N)=O)CSCC(=O)N[C@@H](Cc2ccc(O)cc2)C(=O)N(C)[C@@H](C)C(=O)N[C@@H](CC(N)=O)C(=O)N2CCC[C@H]2C(=O)N[C@@H](CN)C(=O)N[C@@H](CC(C)C)C(=O)N2C[C@H](O)C[C@H]2C(=O)N[C@@H](Cc2c[nH]c3ccccc23)C(=O)N[C@@H](CO)C(=O)N[C@@H](Cc2c[nH]c3ccccc23)c2nnnn2[C@@H](CCCC)C(=O)N1C` [Example 1100] ({CH2CO}-Y[NMeA]NP[Dap]L[Hyp]WS[X1][NMeNle]ACG-NH2; thioether N-13), the half-maximal inhibitory concentration (IC50) lay in the range of 100 to 10000 nM.
Still for that read-out and setting: in the case of `CCCC[C@H]1C(=O)N[C@@H](CCC(=O)O)C(=O)N[C@H](C(=O)NCC(N)=O)CSCC(=O)N[C@@H](Cc2ccc(O)cc2)C(=O)N(C)[C@@H](C)C(=O)N[C@@H](CC(=O)O)C(=O)N2CCC[C@H]2C(=O)N[C@@H](CN)C(=O)N[C@@H](CCC(=O)O)C(=O)N2C[C@H](O)C[C@H]2C(=O)N[C@@H](Cc2c[nH]c3ccccc23)C(=O)N[C@@H](CO)C(=O)N[C@@H](Cc2c[nH]c3ccccc23)c2nnnn2[C@@H](CCCC)C(=O)N1C` [Example 1101] ({CH2CO}-Y[NMeA]DP[Dap]E[Hyp]WS[X1][NMeNle]ECG-NH2; thioether N-13) it was 100 to 10000 nM; in that of `CCCC[C@H]1C(=O)N[C@@H](CCC(=O)O)C(=O)N[C@H](C(=O)NCC(N)=O)CSCC(=O)N[C@@H](Cc2ccc(O)cc2)C(=O)N(C)[C@@H](C)C(=O)N[C@@H](CC(N)=O)C(=O)N2CCC[C@H]2C(=O)N[C@@H](CN)C(=O)N[C@@H](CC(C)C)C(=O)N2C[C@H](O)C[C@H]2C(=O)N[C@@H](Cc2c[nH]c3ccccc23)C(=O)N[C@@H](CO)C(=O)N[C@@H](Cc2c[nH]c3ccccc23)c2nnnn2[C@@H](CCCC)C(=O)N1C` [Example 1102] ({CH2CO}-Y[NMeA]NP[Dap]L[Hyp]WS[X1][NMeNle]ECG-NH2; thioether N-13), 100 to 10000 nM; in that of `CCCC[C@H]1C(=O)N[C@@H](C)C(=O)N[C@H](C(=O)NCC(N)=O)CSCC(=O)N[C@@H](Cc2ccc(O)cc2)C(=O)N(C)[C@@H](C)C(=O)N[C@@H](CC(=O)O)C(=O)N2CCC[C@H]2C(=O)N[C@@H](Cc2cnc[nH]2)C(=O)N[C@@H](CCC(N)=O)C(=O)N2C[C@H](O)C[C@H]2C(=O)N[C@@H](Cc2c[nH]c3ccccc23)C(=O)N[C@@H](CO)C(=O)N[C@@H](Cc2cccc3ccccc23)c2nnnn2[C@@H](CCCC)C(=O)N1C` [Example 1103], 100 to 10000 nM.
